# Measured values: patent US10150728B2, “Alkylene derivatives” (Shionogi & Co., Ltd., priority 2013, dated 2018)
# Molecular target: recombinant human ACC2 (Homo sapiens (Human), UniProt O00763)
# Test: Measurement of inhibitory activity on human ACC2 (MALDI-TOF MS, acetyl CoA to malonyl CoA conversion)
# Type: biochemical
# Settings: Tables 155-159
# Method in brief: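 His-tagged human ACC2 (residues 27–2458) from baculovirus-infected Sf-9 cells was preincubated 1 h in pH 7.4 HEPES-KOH buffer with MgCl2, 6-10 mM potassium citrate, glutathione and BSA. Substrate solution held 1 mM ATP, 0.8 mM acetyl CoA and 25-50 mM bicarbonate. After 1–3 h at room temperature, malonyl CoA/(malonyl+acetyl CoA) was read by negative-mode MALDI-TOF MS; citrate, bicarbonate and time varied by enzyme lot.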
# Sequence of recombinant human ACC2 (O00763 27-2458): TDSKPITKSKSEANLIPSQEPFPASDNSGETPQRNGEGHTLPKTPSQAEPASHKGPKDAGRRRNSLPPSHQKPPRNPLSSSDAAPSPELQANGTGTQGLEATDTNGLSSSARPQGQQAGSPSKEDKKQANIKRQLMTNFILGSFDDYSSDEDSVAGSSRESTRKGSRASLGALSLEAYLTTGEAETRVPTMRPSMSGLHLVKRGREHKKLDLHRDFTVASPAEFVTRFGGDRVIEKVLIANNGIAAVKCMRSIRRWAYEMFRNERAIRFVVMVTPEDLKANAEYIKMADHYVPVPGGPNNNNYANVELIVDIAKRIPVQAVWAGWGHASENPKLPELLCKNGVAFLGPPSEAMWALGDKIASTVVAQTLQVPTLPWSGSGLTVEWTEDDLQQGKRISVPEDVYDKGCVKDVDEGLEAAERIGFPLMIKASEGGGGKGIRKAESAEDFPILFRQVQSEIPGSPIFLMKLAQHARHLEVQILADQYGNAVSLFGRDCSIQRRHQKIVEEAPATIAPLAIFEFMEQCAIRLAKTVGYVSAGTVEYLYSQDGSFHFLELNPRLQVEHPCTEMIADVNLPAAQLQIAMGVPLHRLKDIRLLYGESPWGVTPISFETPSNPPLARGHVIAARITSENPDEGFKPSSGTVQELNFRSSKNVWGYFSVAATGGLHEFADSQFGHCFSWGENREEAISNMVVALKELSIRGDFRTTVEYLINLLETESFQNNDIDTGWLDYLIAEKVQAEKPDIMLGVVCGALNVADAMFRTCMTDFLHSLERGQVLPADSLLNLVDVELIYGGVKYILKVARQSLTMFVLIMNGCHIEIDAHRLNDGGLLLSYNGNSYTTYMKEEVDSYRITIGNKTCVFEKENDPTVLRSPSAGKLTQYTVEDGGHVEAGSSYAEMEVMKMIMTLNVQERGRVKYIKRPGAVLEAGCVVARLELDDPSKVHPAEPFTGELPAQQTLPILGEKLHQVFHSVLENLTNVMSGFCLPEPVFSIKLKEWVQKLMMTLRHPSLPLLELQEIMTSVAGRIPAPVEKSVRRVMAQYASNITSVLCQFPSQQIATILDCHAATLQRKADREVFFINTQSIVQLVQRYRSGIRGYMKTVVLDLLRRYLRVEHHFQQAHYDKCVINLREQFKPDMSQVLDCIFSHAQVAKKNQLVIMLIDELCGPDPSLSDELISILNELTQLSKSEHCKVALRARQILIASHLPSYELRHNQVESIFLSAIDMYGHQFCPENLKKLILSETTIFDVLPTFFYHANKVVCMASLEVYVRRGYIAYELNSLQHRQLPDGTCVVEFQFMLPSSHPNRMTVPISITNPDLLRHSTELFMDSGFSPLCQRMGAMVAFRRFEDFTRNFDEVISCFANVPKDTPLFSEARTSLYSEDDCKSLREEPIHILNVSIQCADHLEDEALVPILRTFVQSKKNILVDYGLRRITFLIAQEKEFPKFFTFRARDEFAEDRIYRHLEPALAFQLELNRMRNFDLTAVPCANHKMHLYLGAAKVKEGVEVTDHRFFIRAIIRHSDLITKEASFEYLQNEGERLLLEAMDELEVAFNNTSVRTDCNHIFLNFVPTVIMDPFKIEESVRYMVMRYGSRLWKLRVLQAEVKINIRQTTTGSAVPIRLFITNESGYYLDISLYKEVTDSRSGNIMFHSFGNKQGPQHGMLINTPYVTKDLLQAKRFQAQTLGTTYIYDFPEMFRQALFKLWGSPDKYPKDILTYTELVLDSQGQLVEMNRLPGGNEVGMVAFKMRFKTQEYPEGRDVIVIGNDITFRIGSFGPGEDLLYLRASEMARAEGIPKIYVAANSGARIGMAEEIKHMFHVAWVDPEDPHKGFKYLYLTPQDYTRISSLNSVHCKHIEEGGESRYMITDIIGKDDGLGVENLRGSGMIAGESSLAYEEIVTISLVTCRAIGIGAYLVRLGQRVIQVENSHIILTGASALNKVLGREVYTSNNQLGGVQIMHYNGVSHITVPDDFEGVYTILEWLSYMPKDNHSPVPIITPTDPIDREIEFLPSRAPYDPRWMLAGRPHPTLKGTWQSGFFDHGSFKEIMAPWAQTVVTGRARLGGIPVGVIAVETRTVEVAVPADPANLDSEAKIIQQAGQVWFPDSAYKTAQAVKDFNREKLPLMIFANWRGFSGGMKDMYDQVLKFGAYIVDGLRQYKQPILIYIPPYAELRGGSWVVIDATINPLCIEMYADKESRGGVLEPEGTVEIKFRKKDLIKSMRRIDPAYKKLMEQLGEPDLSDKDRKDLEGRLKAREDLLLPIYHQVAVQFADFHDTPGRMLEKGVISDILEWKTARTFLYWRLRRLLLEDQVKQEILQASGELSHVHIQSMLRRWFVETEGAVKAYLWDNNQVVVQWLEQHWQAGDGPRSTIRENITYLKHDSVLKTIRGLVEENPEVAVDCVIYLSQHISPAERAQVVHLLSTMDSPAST
smiles,measurement,value
CCOc1ncc2nc(O[C@H]3CC[C@H](OC[C@H](C)NC(C)=O)CC3)n(C)c2c1Cl [Compound I-646],IC50,15 nM
CC(=O)N[C@@H](C)CO[C@H]1CC[C@H](Oc2nc3cnc(OC(C)C)c(Cl)c3n2C)CC1 [Compound I-647],IC50,6 nM
CC(=O)N[C@@H](C)CO[C@H]1CC[C@H](Oc2nc3c(Cl)cc(C4CC4)cc3n2C)CC1 [Compound I-648],IC50,110 nM
CC(=O)N[C@@H](C)CO[C@H]1CC[C@H](Oc2nc3c(Cl)cc(Oc4ccccc4)cc3n2C)CC1 [Compound I-649],IC50,9 nM
CC(=O)N[C@@H](C)CO[C@H]1CC[C@H](Oc2nc3c(C4CC4)cc(OCC(F)F)cc3n2C)CC1 [Compound I-650],IC50,375 nM
CCOc1cc(Cl)c2nc(O[C@H]3CC[C@H](OC[C@H](C)NC(C)=O)CC3)n(C)c2c1F [Compound I-651],IC50,4 nM
CC(=O)N[C@@H](C)CO[C@H]1CC[C@H](Oc2nc3c(F)cc(OCc4ccccc4)c(F)c3n2C)CC1 [Compound I-652],IC50,7 nM
CC(=O)N[C@@H](C)CO[C@H]1CC[C@H](Oc2nc3c(C#N)cc(OCC(F)F)c(F)c3n2C)CC1 [Compound I-653],IC50,65 nM
CC(=O)N[C@@H](C)CO[C@H]1CC[C@H](Oc2nc3c(F)cc(OC4CC4)c(Cl)c3n2C)CC1 [Compound I-655],IC50,2 nM
C[C@@H](CO[C@H]1CC[C@H](Oc2nc3c(F)cc(OCC(F)F)c(F)c3n2C)CC1)NC(=O)c1cn[nH]c1 [Compound I-656],IC50,39 nM
CC(=O)N[C@@H](C)CC[C@H]1CC[C@H](Oc2nc3cnc(OCC(F)F)c(Cl)c3n2C)CO1 [Compound I-657],IC50,14 nM
CC(=O)N[C@@H](C)CO[C@H]1CC[C@H](Oc2nc3cc(F)c(OCC(F)F)c(F)c3n2C)CC1 [Compound I-658],IC50,4 nM
CC(=O)N[C@@H](C)[C@H](C)O[C@H]1CC[C@H](Oc2nc3c(F)cc(OCC(F)F)c(F)c3n2C)CC1 [Compound I-659],IC50,23 nM
CCOc1ccc2nc(O[C@H]3CC[C@H](OC[C@H](C)NC(C)=O)CC3)n(C)c2c1-c1ccccc1 [Compound I-661],IC50,457 nM
CC(=O)N[C@@H](C)CO[C@H]1CC[C@H](Oc2nc3cnc(OCC4CC4)c(Cl)c3n2C)CC1 [Compound I-662],IC50,5 nM
CC(=O)N[C@@H](C)CO[C@H]1CC[C@H](Oc2nc3c(C#N)cc(C4CC4)cc3n2C)CC1 [Compound I-663],IC50,700 nM
CC(=O)N[C@@H](C)CO[C@H]1CC[C@H](Oc2nc3cnc(OC4(C)CC4)c(Cl)c3n2C)CC1 [Compound I-664],IC50,11 nM
CCOc1cc(F)c2nc(O[C@H]3CC[C@H](OC[C@H](C)NC(C)=O)CC3)n(C)c2c1F [Compound I-665],IC50,4 nM
COc1cc(OCc2ccccc2)cc2c1nc(O[C@H]1CC[C@H](OC[C@H](C)NC(C)=O)CC1)n2C [Compound I-666],IC50,298 nM
CC(=O)N[C@@H](C)CO[C@H]1CC[C@H](Oc2nc3cnc(OC4CC4)c(F)c3n2C)CC1 [Compound I-667],IC50,8 nM
C[C@@H](CO[C@H]1CC[C@H](Oc2nc3c(F)cc(OC4CC4)c(F)c3n2C)CC1)NC(=O)CO [Compound I-668],IC50,7 nM
CC(=O)N[C@@H](CO)CO[C@H]1CC[C@H](Oc2nc3cnc(OCC(F)F)c(Cl)c3n2C)CC1 [Compound I-669],IC50,620 nM
C[C@@H](CO[C@H]1CC[C@H](Oc2nc3c(F)cc(OCC(F)F)c(F)c3n2C)CC1)NC(N)=O [Compound I-670],IC50,11 nM
C[C@@H](CO[C@H]1CC[C@H](Oc2nc3c(F)cc(OC4CC4)c(F)c3n2C)CC1)NS(C)(=O)=O [Compound I-671],IC50,11 nM
COC(=O)N[C@@H](C)CO[C@H]1CC[C@H](Oc2nc3c(F)cc(OCC(F)F)c(F)c3n2C)CC1 [Compound I-672],IC50,30 nM
CC(=O)N[C@@H](C)CO[C@H]1CC[C@H](Oc2nc3c(C(N)=O)cc(OC4CC4)c(F)c3n2C)CC1 [Compound I-673],IC50,650 nM
C[C@@H](CC[C@@H]1CC[C@@H](Oc2nc3c(F)cc(OCC(F)F)c(Cl)c3n2C)CO1)NC(N)=O [Compound I-674],IC50,7 nM
CC(=O)N[C@@H](C)[C@H](C)O[C@H]1CC[C@H](Oc2nc3cnc(OCC(F)F)c(Cl)c3n2C)CC1 [Compound I-675],IC50,18 nM
CC(=O)N[C@@H](C)CO[C@H]1CC[C@H](Oc2nc3ccc(OCC(F)F)c(F)c3n2C)CC1 [Compound I-677],IC50,13 nM
CC(=O)N[C@@H](C)CO[C@H]1CC[C@H](Oc2nc3c(Cl)cc(Br)cc3n2C)CC1 [Compound I-678],IC50,123 nM
CC(=O)N[C@@H](C)CO[C@H]1CC[C@H](Oc2nc3c(C#N)cc(OCC(F)F)cc3n2C)CC1 [Compound I-679],IC50,625 nM
CC(=O)N[C@@H](C)CO[C@H]1CC[C@H](Oc2nc3c(Br)cc(OCC(F)F)cc3n2C)CC1 [Compound I-680],IC50,140 nM
C[C@@H](CC[C@H]1CC[C@H](Oc2nc3cnc(OC4CC4)c(Cl)c3n2C)CC1)NC(N)=O [Compound I-682],IC50,5 nM
C[C@@H](CO[C@H]1CC[C@H](Oc2nc3c(F)cc(OC4CC4)c(F)c3n2C)CC1)NC(=O)C(F)F [Compound I-683],IC50,3 nM
CC(=O)N[C@@H](C)CC[C@@H]1CC[C@@H](Oc2nc3cnc(OCC(F)F)c(Cl)c3n2C)CO1 [Compound I-684],IC50,6 nM
CCOc1c(F)cc2c(nc(O[C@H]3CC[C@H](OC[C@H](C)NC(C)=O)CC3)n2C)c1F [Compound I-685],IC50,170 nM
CCOc1nc(F)c2nc(O[C@H]3CC[C@H](OC[C@H](C)NC(C)=O)CC3)n(C)c2c1Cl [Compound I-686],IC50,5 nM
C[C@@H](CO[C@H]1CC[C@H](Oc2nc3c(F)cc(OCC(F)F)c(Cl)c3n2C)CC1)NC(N)=O [Compound I-687],IC50,14 nM
CC(=O)N[C@@H](C)CC[C@@H]1CC[C@@H](Oc2nc3c(F)cc(OCC(F)F)c(Cl)c3n2C)CO1 [Compound I-688],IC50,4 nM
CC(=O)N[C@@H](C)[C@H](C)O[C@H]1CC[C@H](Oc2nc3cnc(OC4CC4)c(F)c3n2C)CC1 [Compound I-689],IC50,25 nM
CC(=O)N[C@@H](C)CO[C@H]1CC[C@H](Oc2nc3ccc(Br)c(F)c3n2C)CC1 [Compound I-691],IC50,25 nM
CCOc1cc(Cl)c2nc(O[C@H]3CC[C@H](OC[C@H](C)NC(C)=O)CC3)n(C)c2c1 [Compound I-692],IC50,34 nM
CC(=O)N[C@@H](C)CO[C@H]1CC[C@H](Oc2nc3cnc(OC4CC(F)(F)C4)c(Cl)c3n2C)CC1 [Compound I-693],IC50,8 nM
CCOc1ncc2nc(O[C@H]3CC[C@H](OC[C@H](C)NC(C)=O)CC3)n(C)c2c1F [Compound I-694],IC50,13 nM
CC(=O)N[C@@H](C)CO[C@H]1CC[C@H](Oc2nc3cnc(C4CC4)c(Cl)c3n2C)CC1 [Compound I-695],IC50,96 nM
COC(=O)NC(=O)N[C@@H](C)CO[C@H]1CC[C@H](Oc2nc3cnc(OC4CC4)c(Cl)c3n2C)CC1 [Compound I-696],IC50,497 nM
C[C@@H](CO[C@H]1CC[C@H](Oc2nc3c(F)cc(OC4CC4)c(F)c3n2C)CC1)NC(N)=O [Compound I-697],IC50,4 nM
CCOc1c(F)cc2nc(O[C@H]3CC[C@H](OC[C@H](C)NC(C)=O)CC3)n(C)c2c1F [Compound I-698],IC50,3 nM
CC(=O)N[C@@H](CF)CO[C@H]1CC[C@H](Oc2nc3c(F)cc(OCC(F)F)c(F)c3n2C)CC1 [Compound I-700],IC50,9 nM
CNC(=O)N[C@@H](C)CO[C@H]1CC[C@H](Oc2nc3c(F)cc(OCC(F)F)c(F)c3n2C)CC1 [Compound I-701],IC50,23 nM
CC(=O)N[C@@H](C)CO[C@H]1OC[C@@H](Oc2nc3c(F)cc(OCC(F)F)c(F)c3n2C)C[C@@H]1C [Compound I-702],IC50,15 nM
CC(=O)N[C@@H](C)CO[C@H]1CC[C@H](Oc2nc3c(C#N)c(F)c(OCC(F)F)c(F)c3n2C)CO1 [Compound I-703],IC50,30 nM
CC(=O)N[C@@H](C)CO[C@H]1CC[C@H](Oc2nc3cnc(OC4CC4)c(Cl)c3n2C)CC1 [Compound I-705],IC50,9 nM
CC(=O)N[C@@H](C)CO[C@H]1CC[C@H](Oc2nc3c(Cl)cc(OCC(F)F)cc3n2C)CC1 [Compound I-706],IC50,48 nM
CC(=O)N[C@@H](C)CO[C@H]1CC[C@H](Oc2nc3c(F)cc(OCC(F)F)cc3n2C)CC1 [Compound I-707],IC50,84 nM
CC(=O)N[C@@H](C)CO[C@H]1CC[C@H](Oc2nc3cnc(OCC4CC4(F)F)c(Cl)c3n2C)CC1 (stereo partly drawn) [Compound I-708],IC50,5 nM
CC(=O)N[C@@H](C)CO[C@H]1CC[C@H](Oc2nc3c(C)cc(OCC(F)F)cc3n2C)CC1 [Compound I-709],IC50,133 nM
CC(=O)N[C@@H](C)CO[C@H]1CC[C@H](Oc2nc3c(Cl)nc(OC4CC4)c(Cl)c3n2C)CC1 [Compound I-710],IC50,6 nM
CC(=O)N[C@@H](C)CO[C@H]1CC[C@H](Oc2nc3c(Cl)nc(OC4CC4)c(F)c3n2C)CC1 [Compound I-711],IC50,7 nM
CC(=O)N[C@@H](C)CO[C@H]1CC[C@H](Oc2nc3c(F)cc(OC4CC(F)(F)C4)c(F)c3n2C)CC1 [Compound I-713],IC50,3 nM
C[C@@H](CO[C@H]1CC[C@H](Oc2nc3c(F)cc(OCC(F)F)c(F)c3n2C)CC1)NC(=O)CC#N [Compound I-714],IC50,44 nM
CC(=O)N[C@@H](C)[C@@H](C)O[C@H]1CC[C@H](Oc2nc3c(F)cc(OCC(F)F)c(F)c3n2C)CC1 [Compound I-716],IC50,170 nM
CC(=O)N[C@@H](C)CO[C@H]1CC[C@H](Oc2nc3c(F)c(C)c(OCC(F)F)c(F)c3n2C)CC1 [Compound I-717],IC50,15 nM
CCOc1ccc2nc(O[C@H]3CC[C@H](OC[C@H](C)NC(C)=O)CC3)n(C)c2c1C#N [Compound I-720],IC50,775 nM
CC(=O)N[C@@H](C)CO[C@H]1CC[C@H](Oc2nc3cnc(OCC(F)F)c(Cl)c3n2C)CC1 [Compound I-722],IC50,9 nM
CCOc1cc(F)c2nc(O[C@H]3CC[C@H](OC[C@H](C)NC(C)=O)CC3)n(C)c2c1 [Compound I-723],IC50,41 nM
